Patent US12319655B2, “RAF kinase inhibitors and methods of use thereof” (Deciphera Pharmaceuticals, LLC, priority 2021, dated 2025)

Tests used:
A375 cells = assay: A375 Cell Proliferation Assay (1); assay type: cell-based; details: Homo sapiens, A-375
Method in brief: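 Resazurin fluorescence (excitation 540 nm, emission 600 nm, after a further 5-6 h) gave IC50s from triplicate compound dilution series.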

[1] = target: A-Raf kinase (SEQ. ID No: 1) (Homo sapiens (Human), UniProt P10398, Y301D/Y302D); assay: Biochemical Assay for A-Raf (1); details: Table J, assay version (1); read-out: ARAF (1) IC50
Method in brief: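 IC50 values were derived by four-parameter sigmoidal fitting of percent inhibition, calculated from reaction rates over the 4–5 h window. Absorbance at 340 nm was tracked for 6 h at 30 °C via coupled PK/LDH NADH depletion. Conditions: 1 mM ATP, 30.1 nM MEK substrate, 5.55 nM A-Raf (Y301D/Y302D), Tris pH 7.5, 1% DMSO.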

[2] = target: C-Raf kinase (SEQ. ID NO: 3) (Homo sapiens (Human), UniProt P04049, Y340D/Y341D); assay: Biochemical Assay for C-Raf (1); details: Table J, assay version (1); read-out: CRAF (1) IC50
Method in brief: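 IC50 values come from a four-parameter fit of percent inhibition, using the reaction rate over 4–5 h of a 6 h continuous 340 nm read at 30 °C. The enzyme mix was C-Raf 0.43 nM, MEK substrate 30.1 nM and ATP 1 mM, in a PK/LDH NADH-coupled format in Tris pH 7.5 with 1% DMSO.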

WM3928 cells = assay: WM3928 Cell Proliferation Assay (1); assay type: cell-based
Method in brief: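 IC50 was derived from resazurin fluorescence (ex 540, em 600 nm) after a 6–7 h dye incubation. Before that, cells had 67–72 h of compound exposure at 37 °C, 5% CO2.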

Sequence of C-Raf kinase (SEQ. ID NO: 3) (P04049 307-648 Y340D/Y341D): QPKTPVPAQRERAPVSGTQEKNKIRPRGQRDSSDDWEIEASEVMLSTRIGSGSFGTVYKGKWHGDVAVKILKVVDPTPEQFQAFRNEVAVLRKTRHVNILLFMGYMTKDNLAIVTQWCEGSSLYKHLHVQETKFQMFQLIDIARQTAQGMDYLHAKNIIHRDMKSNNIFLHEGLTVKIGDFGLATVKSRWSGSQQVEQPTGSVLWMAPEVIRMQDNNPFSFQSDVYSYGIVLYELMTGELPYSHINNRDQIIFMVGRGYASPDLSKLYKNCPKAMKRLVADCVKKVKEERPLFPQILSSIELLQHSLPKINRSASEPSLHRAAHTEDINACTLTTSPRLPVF
Sequence of A-Raf kinase (SEQ. ID No: 1) (P10398 other isoform, or with tags, fused parts or gaps Y301D (already in the parent)/Y302D (already in the parent)): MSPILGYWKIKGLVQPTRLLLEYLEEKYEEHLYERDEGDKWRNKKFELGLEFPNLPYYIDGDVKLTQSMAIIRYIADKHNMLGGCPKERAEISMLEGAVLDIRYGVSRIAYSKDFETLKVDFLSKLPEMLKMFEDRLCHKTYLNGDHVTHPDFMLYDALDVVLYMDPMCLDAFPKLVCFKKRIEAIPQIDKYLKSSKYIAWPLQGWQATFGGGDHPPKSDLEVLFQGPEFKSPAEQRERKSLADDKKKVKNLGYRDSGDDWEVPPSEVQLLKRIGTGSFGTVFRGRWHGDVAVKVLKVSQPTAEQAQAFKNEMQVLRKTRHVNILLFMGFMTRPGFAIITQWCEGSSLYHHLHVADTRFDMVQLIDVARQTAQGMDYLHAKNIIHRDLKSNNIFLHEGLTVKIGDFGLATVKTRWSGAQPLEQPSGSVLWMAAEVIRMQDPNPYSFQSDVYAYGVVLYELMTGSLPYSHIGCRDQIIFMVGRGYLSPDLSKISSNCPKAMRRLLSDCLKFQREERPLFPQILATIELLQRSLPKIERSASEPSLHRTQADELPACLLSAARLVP

Compound: CC(=O)Nc1cc(-c2cc(-c3cc(NC(=O)c4ccnc(C(F)(F)F)c4)ccc3C)cc(OCCO)n2)ccn1 [Example 1, N-(3-(2′-acetamido-6-(2-hydroxyethoxy)-[2,4′-bipyridin]-4-yl)-4-methylphenyl)-2-(trifluoromethyl)isonicotinamide]
- IC50 (A375 cells): ≤ 100 nM
- IC50 [1]: 1000 to 10000 nM
- IC50 [2]: ≤ 100 nM

Compound: CC(=O)Nc1cc(-c2cc(-c3cc(NC(=O)c4ccnc(C(F)(F)F)c4)c(F)cc3C)ccn2)ccn1 [Example 2]
- IC50 (A375 cells): 100 to 500 nM
- IC50 [1]: 500 to 1000 nM
- IC50 [2]: ≤ 100 nM

Compound: CC(=O)Nc1cc(-c2cc(-c3cc(NC(=O)c4cccc(C)c4)ccc3C)ccn2)ccn1 [Example 32]
- IC50 (A375 cells): 500 to 1000 nM
- IC50 [1]: 500 to 1000 nM
- IC50 [2]: ≤ 100 nM

Compound: Cc1cc(F)c(NC(=O)c2ccnc(C(F)(F)F)c2)cc1-c1ccnc(-c2ccnc(NC=O)c2)c1 [Example 35]
- IC50 (A375 cells): 500 to 1000 nM
- IC50 [1]: 1000 to 10000 nM
- IC50 [2]: ≤ 100 nM

Compound: CC(=O)Nc1cc(-c2cc(-c3cc(NC(=O)c4ccnc(C(F)(F)F)c4)cnc3C)ccn2)ccn1 [Example 36]
- IC50 (A375 cells): 500 to 1000 nM
- IC50 [1]: 1000 to 10000 nM
- IC50 [2]: ≤ 100 nM

Compound: CC(=O)Nc1cc(-c2cc(-c3cc(NC(=O)c4cccc(C(F)(F)F)c4)cnc3C)ccn2)ccn1 [Example 37]
- IC50 (A375 cells): ≤ 100 nM
- IC50 [1]: 1000 to 10000 nM
- IC50 [2]: ≤ 100 nM

Compound: Cc1ccc(NC(=O)c2ccnc(C(F)(F)F)c2)cc1-c1ccnc(-c2ccnc(NC(=O)CC#N)c2)c1 [Example 39, N-(3-(2′-(2-cyanoacetamido)-[2,4′-bipyridin]-4-yl)-4-methylphenyl)-2-(trifluoromethyl)isonicotinamide]
- IC50 (A375 cells): 500 to 1000 nM
- IC50 [1]: 1000 to 10000 nM
- IC50 [2]: ≤ 100 nM

Compound: CNC(=O)c1cc(-c2cc(-c3cc(NC(=O)c4ccnc(C)c4)ccc3C)ccn2)ccn1 [Example 40]
- IC50 (A375 cells): 1000 to 10000 nM
- IC50 [1]: 1000 to 10000 nM
- IC50 [2]: ≤ 100 nM

Compound: CC(=O)Nc1cc(-c2cc(-c3cc(NC(=O)c4ccnc(C(F)(F)F)c4)ccc3C)nc(N(C)C)n2)ccn1 [Example 41, N-(3-(6-(2-acetamidopyridin-4-yl)-2-(dimethylamino)pyrimidin-4-yl)-4-methylphenyl)-2-(trifluoromethyl)isonicotinamide]
- IC50 (A375 cells): 100 to 500 nM
- IC50 (WM3928 cells): ≤ 100 nM
- IC50 [1]: 1000 to 10000 nM
- IC50 [2]: ≤ 100 nM

Compound: CNC(=O)c1cc(-c2cc(-c3cc(NC(=O)c4ccnc(C(F)(F)F)c4)cnc3C)ccn2)ccn1 [Example 42]
- IC50 (A375 cells): 1000 to 10000 nM
- IC50 (WM3928 cells): 1000 to 10000 nM
- IC50 [1]: 1000 to 10000 nM
- IC50 [2]: ≤ 100 nM

Compound: Cc1ccc(NC(=O)c2ccnc(C(C)(C)C#N)c2)cc1-c1cncc(-c2ccnc3c2CC(=O)N3)n1 [Example 43]
- IC50 (A375 cells): 500 to 1000 nM
- IC50 (WM3928 cells): ≤ 100 nM
- IC50 [1]: 1000 to 10000 nM
- IC50 [2]: ≤ 100 nM

Compound: Cc1ccc(NC(=O)c2ccnc(C(F)(F)F)c2)cc1-c1ccnc(-c2ccnc(NC=O)c2)c1 [Example 46]
- IC50 (A375 cells): 1000 to 10000 nM
- IC50 [1]: 1000 to 10000 nM
- IC50 [2]: ≤ 100 nM

Compound: CNC(=O)c1cc(-c2cncc(-c3cc(NC(=O)c4ccnc(C(F)(F)F)c4)ccc3C)n2)ccn1 [Example 47]
- IC50 (A375 cells): 1000 to 10000 nM
- IC50 [1]: 1000 to 10000 nM
- IC50 [2]: ≤ 100 nM

Compound: CNC(=O)c1cc(-c2cc(-c3cc(NC(=O)c4ccnc(C(F)F)c4)ccc3C)ccn2)ccn1 [Example 48]
- IC50 (A375 cells): 500 to 1000 nM
- IC50 (WM3928 cells): 500 to 1000 nM
- IC50 [1]: 1000 to 10000 nM
- IC50 [2]: ≤ 100 nM

Compound: Cc1cc(-c2cc(-c3cc(NC(=O)c4ccnc(C(C)(C)C#N)c4)ccc3C)ccn2)ccn1 [Example 49]
- IC50 (A375 cells): 500 to 1000 nM
- IC50 [1]: 1000 to 10000 nM
- IC50 [2]: ≤ 100 nM

Compound: CNC(=O)c1cc(-c2cc(-c3cc(NC(=O)c4ccnc(C(C)(C)C#N)c4)ccc3C)ccn2)ccn1 [Example 50]
- IC50 (A375 cells): ≤ 100 nM
- IC50 (WM3928 cells): ≤ 100 nM
- IC50 [1]: 1000 to 10000 nM
- IC50 [2]: ≤ 100 nM

Compound: CNC(=O)c1cc(-c2cc(-c3cc(NC(=O)c4cccc(C(F)(F)F)c4)cnc3C)ccn2)ccn1 [Example 52]
- IC50 (A375 cells): 100 to 500 nM
- IC50 (WM3928 cells): 100 to 500 nM
- IC50 [1]: 1000 to 10000 nM
- IC50 [2]: ≤ 100 nM

Compound: Cc1ccc(NC(=O)c2ccnc(C(F)(F)F)c2)cc1-c1ccnc(-c2ccnc(NC(=O)C3CC3)c2)c1 [Example 54]
- IC50 (A375 cells): 100 to 500 nM
- IC50 (WM3928 cells): ≤ 100 nM
- IC50 [1]: 1000 to 10000 nM
- IC50 [2]: ≤ 100 nM

Compound: Cc1ccc(NC(=O)c2ccnc(C(C)(C)C#N)c2)cc1-c1ccnc(-c2ccnc(N)c2)c1 [Example 56]
- IC50 (A375 cells): 100 to 500 nM
- IC50 (WM3928 cells): 500 to 1000 nM
- IC50 [1]: 1000 to 10000 nM
- IC50 [2]: ≤ 100 nM

Compound: COCC(=O)Nc1cc(-c2cccc(-c3cc(NC(=O)c4ccnc(C(F)(F)F)c4)ccc3C)c2)ccn1 [Example 57]
- IC50 (A375 cells): 100 to 500 nM
- IC50 [1]: 1000 to 10000 nM
- IC50 [2]: ≤ 100 nM

Compound: CC(=O)Nc1cc(-c2cc(-c3cc(NC(=O)c4ccnc(C)c4)ccc3C)ncn2)ccn1 [Example 59]
- IC50 (A375 cells): 1000 to 10000 nM
- IC50 [1]: 1000 to 10000 nM
- IC50 [2]: ≤ 100 nM
